According to patent US7858800B2, “Biaryl derivatives” (Banyu Pharmaceutical Co., Ltd., priority 2004, dated 2010):

Experiments:
[1] = target: T1, human metabotropic glutamic acid receptor 1a (mGluR1a) (Homo sapiens, UniProt Q13255); assay: mGluR1-inhibiting action: calcium concentration in CHO cells expressing mGluR1a (FLIPR); assay type: cell-based; conditions: suppression of rise in calcium raised by 10 μM glutamic acid, test compound added 5 minutes before agonist
T1 construct: expressed in transfected cells
T1 sequence (Q13255 19-1194): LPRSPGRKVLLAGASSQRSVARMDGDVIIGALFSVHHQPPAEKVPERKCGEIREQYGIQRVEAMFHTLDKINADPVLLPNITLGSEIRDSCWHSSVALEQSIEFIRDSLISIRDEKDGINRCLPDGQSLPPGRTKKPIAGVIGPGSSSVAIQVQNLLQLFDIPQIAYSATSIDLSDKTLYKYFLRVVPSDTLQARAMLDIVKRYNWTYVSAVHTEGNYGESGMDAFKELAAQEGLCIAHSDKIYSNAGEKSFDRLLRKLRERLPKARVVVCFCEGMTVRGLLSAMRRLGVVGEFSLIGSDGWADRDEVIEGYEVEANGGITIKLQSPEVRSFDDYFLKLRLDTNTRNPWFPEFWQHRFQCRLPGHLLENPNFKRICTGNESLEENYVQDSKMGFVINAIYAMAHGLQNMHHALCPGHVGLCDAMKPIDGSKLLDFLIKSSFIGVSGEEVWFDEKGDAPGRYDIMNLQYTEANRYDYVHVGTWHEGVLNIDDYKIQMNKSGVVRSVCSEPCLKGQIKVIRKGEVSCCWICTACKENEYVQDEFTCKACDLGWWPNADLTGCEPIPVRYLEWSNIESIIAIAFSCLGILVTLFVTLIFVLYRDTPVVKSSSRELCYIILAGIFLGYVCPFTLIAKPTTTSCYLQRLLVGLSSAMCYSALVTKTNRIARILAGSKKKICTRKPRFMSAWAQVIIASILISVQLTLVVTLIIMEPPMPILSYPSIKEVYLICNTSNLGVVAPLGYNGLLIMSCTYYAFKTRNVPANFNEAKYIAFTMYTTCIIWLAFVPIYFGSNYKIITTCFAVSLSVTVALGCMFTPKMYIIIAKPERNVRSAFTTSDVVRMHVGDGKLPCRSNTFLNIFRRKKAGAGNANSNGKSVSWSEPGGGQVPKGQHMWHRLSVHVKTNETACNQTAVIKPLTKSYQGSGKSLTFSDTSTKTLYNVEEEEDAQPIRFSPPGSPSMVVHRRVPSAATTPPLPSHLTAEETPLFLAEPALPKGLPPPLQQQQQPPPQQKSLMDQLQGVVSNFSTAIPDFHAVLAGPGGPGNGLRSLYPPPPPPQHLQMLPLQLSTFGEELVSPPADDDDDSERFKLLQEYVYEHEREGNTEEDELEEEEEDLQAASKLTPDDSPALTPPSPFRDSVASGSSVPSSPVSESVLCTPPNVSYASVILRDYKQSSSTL
Method: cDNA of human metabotropic glutamic acid receptor 1a (mGluR1a) was transfected to CHO cells using Lipofectamine (manufactured by Gibco BRL) to give a strain which stably expresses mGluR1a. The CHO cells in which mGluR1a was expressed were incubated in a DMEM medium containing 10% of dialyzed fetal bovine serum, 1% of proline, 100 units/ml of penicillin, 0.1 mg/ml of streptomycin sulfate and 2 mM of glutamine.
On the day before the measurement, 4 μM Fluo-3 was incubated in a CO2 incubator for 1 hour to the CHO cells where mGluR1a was expressed being plated with 50,000 cells per well of a 96-well black plate (View Plate manufactured by Packard). After that, the cells were washed for four times with an HBSS solution containing 20 mM of HEPES and 2.5 mM of Probenecid and then calcium concentration in the cells was measured using a Fluorescence Imaging Plate Reader (FLIPR, manufactured by Molecular Device). Incidentally, the test compound and glutamic acid were prepared using an HBSS solution containing 20 mM HEPES and 2.5 mM Probenecid. The test compound was added before 5 minutes of the stimulation with an agonist and, with regard to the agonist, 10 μM glutamic acid was used.

rats = assay: Suppressive action on pre-pulse inhibition (PPI) decreased by methamphetamine, startle reaction of rats; assay type: in vivo, rat; conditions: compound orally 1 to 10 mg/kg 30 minutes before methamphetamine 3 mg/kg, significant suppressive action on decreased PPI
Method: Suppressive Action of the Compound to Pre-Pulse Inhibition which Decreases by Methamphetamine)
Investigation was also carried out in a test system of a pre-pulse inhibition where action of antipsychotic agents is able to be specifically detected. A startle reaction being stimulated by combining sonic stimulations of […] and 72 dB (pre-pulse) prior to pulse stimulation and startle reaction to sonic stimulation of 120 dB (pulse stimulation) in the presence of a back sound of 60 dB was measured using a startle reaction measuring device which perceives the body movement of rats (manufactured by San Diego Instrument). The compound of the present invention or an appropriate solvent was administered to a rat and, after 30 minutes, a physiological saline solution of 3 mg/kg of methamphetamine was administered whereupon measurement of a startle reaction was carried out. The startle reactions upon the pulse stimulation and in the presence of pre-pulse were defined as A and B, respectively and values of pre-pulse inhibition (hereinafter, referred to as PPI) were calculated from the following formula.
Method for calculation of PPI: PPI(%)=100×(A−B)/A
When a pre-treatment with methamphetamine was conducted, the startle reaction attenuated to an extent of only about 20% whereby a reduction in pre-pulse inhibition was noted. In the present model, lowering of pre-pulse inhibition by methamphetamine tends to be recovered when a compound having an mGluR1 antagonistic action was orally administered (1 to 10 mg/kg) 30 minutes before the administration of methamphetamine.

Male ICR (CD-1) mice = assay: Suppressive action on autonomic momentum (behavior quantity) in mice increased by methamphetamine; assay type: in vivo; conditions: compound 10 mg/kg intraperitoneally 30 minutes before methamphetamine 2 mg/kg subcutaneous, behavior quantity during 60 minutes
Method: Suppressive Action of the Compound to Autonomic Momentum in Mice which Increases by Methamphetamine
Male ICR (CD-1) mice (20 to 40 g) were used and behavior quantity was measured using a behavior quantity measuring device (manufactured by Neuroscience) where movement of animals is perceived by an infrared sensor. A compound or an appropriate solvent was administered to a mouse and, after 30 minutes, a physiological saline solution or methamphetamine was administered. Behavior quantities immediately after that and until 60 minutes thereafter were measured. Difference between the behavior quantity of the methamphetamine-administered group and that of the solvent-administered group during the measuring period was defined as 100% and evaluation was conducted by expressing the inhibitory % in behavior quantity of the test-compound-administered group.

Structure (SMILES)	IC50 [1] [nM]	Inhibition Effect to PPI Disorder (rats)	Motility Quantity (Suppressive %) (Male ICR (CD-1) mice) [%]
Cc1c(C2=CCN(C(=O)OC(C)C)CC2)nnn1-c1cccnc1Cl [Example 42, Isopropyl 4-[1-(2-chloropyridin-3-yl)-5-methyl-1H-[1,2,3]-triazol-4-yl]-1,2,3,6-tetrahydropyridine-1-carboxylate]	6.7	yes	>80
Cc1c(C2=CCN(C(=O)OC(C)C)CC2)nnn1-c1ccc(F)nc1 [Example 43, Isopropyl 4-[1-(2-fluoropyridin-5-yl)-5-methyl-1H-[1,2,3]triazol-4-yl]-1,2,3,6-tetrahydropyridine-1-carboxylate]	6.8	yes	>80
Cc1c(C2=CCN(C(=O)N(C)C(C)C)CC2)nnn1-c1cccnc1F [Example 82, 4-[1-(2-Fluoropyridin-3-yl)-5-methyl-1H-[1,2,3]-triazol-4-yl]-1,2,3,6-tetrahydropyridine-1-carboxylic acid isopropylmethylamide]		yes	
Cc1c(C2=CCN(C(=O)N(C)C(C)C)CC2)nnn1-c1cccnc1Cl [Example 84]			>80
